Test systems include OVCAR-4 ovarian; HT29 colon; UO-31 renal; NCI-H23 lung; DU-145 prostate; 786-0 renal; NCI-H522 lung; UACC-257 melanoma; MOLT-4 leukemia; MDA-MB-435.
What all share (test): inhibition of tumour cell growth, NCI panel, 48 h

Molecules are shown by their SMILES. Where “and” joins values, the source holds several entries; their conditions need not be identical. Identical values can stand only once.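 Five concentrations, 48 hours, 96-well plates. Here, GI50 denotes the concentration required for 50% inhibition of growth. TGI is the concentration that stops growth completely.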

Regarding `O=C(CN1C(=O)S/C(=C\C(Cl)=C\c2ccccc2)C1=O)NCCCn1ccnc1`, the GI50 was 1.86 µM with OVCAR-4 ovarian; 2.18 µM with HT29 colon; 1.61 µM in the assay on UO-31 renal; 2.26 µM in the assay with NCI-H23 lung; 2.22 µM with DU-145 prostate; 1.98 µM in the assay with 786-0 renal. For the same compound, the GI50 in the assay on NCI-H522 lung was 2.02 µM; with UACC-257 melanoma it was 2.63 µM; with MOLT-4 leukemia, 2.1 µM; in the assay on MDA-MB-435 it was 1.99 µM. For the same compound, the TGI in the assay on OVCAR-4 ovarian was found to be 4.39 µM; with HT29 colon it was 6.07 µM; with UO-31 renal it was 3.49 µM; with NCI-H23 lung, 6.88 µM; in the assay with DU-145 prostate, 5.64 µM; in the assay on 786-0 renal it was 3.91 µM. The TGI with NCI-H522 lung was found to be 5.15 µM; in the assay on UACC-257 melanoma, 10.2 µM; in the assay with MOLT-4 leukemia it was 7.57 µM; in the assay with MDA-MB-435, 4.19 µM.

With `NS(=O)(=O)c1ccc(N2N=C(c3cccs3)CC2c2ccccc2O)cc1` (stereo not drawn), the GI50 in the assay with OVCAR-4 ovarian was 2.88 µM; in the assay on HT29 colon, 0.897 µM; with UO-31 renal, 4.01 µM; with NCI-H23 lung, 1.3 µM; in the assay with DU-145 prostate it was 0.903 µM; in the assay with 786-0 renal, 1.84 µM. Also, the GI50 is 0.644 µM in the assay with NCI-H522 lung, 1.47 µM in the assay on UACC-257 melanoma, 1.27 µM in the assay with MOLT-4 leukemia and 0.704 µM in the assay with MDA-MB-435. Also, the TGI with OVCAR-4 ovarian is over 33.3 µM; with HT29 colon it was 2.39 µM; in the assay with UO-31 renal, 12.1 µM; with NCI-H23 lung, 8.47 µM; in the assay with DU-145 prostate, 2.33 µM; in the assay on 786-0 renal, 8.45 µM. The TGI amounted to 1.51 µM with NCI-H522 lung, 7.97 µM in the assay with UACC-257 melanoma, 16.9 µM with MOLT-4 leukemia and 1.8 µM with MDA-MB-435.

For the compound `COc1cc2c3cc1Oc1c(OC)c(OC)cc4c1C(Cc1ccc(cc1)Oc1cc(ccc1O)CC3N(C)CC2)N(C)CC4` (stereo not drawn), the TGI in the assay with OVCAR-4 ovarian is 29.6 µM and 31.3 µM; in the assay on HT29 colon it was 20.9 µM and 14.1 µM; in the assay on UO-31 renal, 21.5 µM and 20.6 µM; in the assay with NCI-H23 lung it was 48.1 µM and 26.3 µM; in the assay on DU-145 prostate, 24.8 µM; in the assay with 786-0 renal it was > 100 µM and 38.5 µM. Besides, the TGI with NCI-H522 lung is 14.2 µM and 20.5 µM; with UACC-257 melanoma it was 26.7 µM and 4.29 µM; with MOLT-4 leukemia, 30.8 µM and 36.8 µM; with MDA-MB-435, 31.9 µM. Also, the GI50 in the assay on 786-0 renal is > 100 µM and 10.2 µM; in the assay with NCI-H522 lung it was 1.57 µM and 4.86 µM; in the assay with UACC-257 melanoma, 13.3 µM and 1.96 µM.

Consider `CCCC(CCC)C(=O)OCC1(CO)C/C(=C\c2ccc(C(F)(F)F)cc2)C(=O)O1` (stereo not drawn), for which the GI50 in the assay on OVCAR-4 ovarian is 17.9 µM; in the assay on HT29 colon, 14.4 µM; in the assay with UO-31 renal it was 12.2 µM; in the assay on NCI-H23 lung, 15.8 µM; in the assay on DU-145 prostate, 13.4 µM; with 786-0 renal, 10.1 µM. Besides, the GI50 with NCI-H522 lung was 15.1 µM; with UACC-257 melanoma, 18.1 µM; in the assay on MOLT-4 leukemia it was 14.3 µM; with MDA-MB-435 it was 0.304 µM. Moreover, the TGI turned out to be 34.4 µM with OVCAR-4 ovarian; 30.6 µM in the assay with HT29 colon; 26.5 µM with UO-31 renal; 32.1 µM in the assay on NCI-H23 lung; 27.8 µM in the assay on DU-145 prostate; 22.5 µM in the assay on 786-0 renal. Moreover, the TGI amounted to 31.4 µM in the assay with NCI-H522 lung, 33.4 µM with UACC-257 melanoma, 31.9 µM with MOLT-4 leukemia and 19.3 µM in the assay with MDA-MB-435.

With `CN(C)N=Nc1nn(C(=O)Nc2ccc(Cc3ccccc3)cc2)c2ccccc12`, the TGI with OVCAR-4 ovarian was over 100 µM; with HT29 colon, over 100 µM; with UO-31 renal, over 79 µM; in the assay on NCI-H23 lung, over 100 µM; in the assay on DU-145 prostate it was over 100 µM; in the assay with 786-0 renal, over 100 µM. Also, the TGI in the assay with NCI-H522 lung, in the assay with UACC-257 melanoma, in the assay with MOLT-4 leukemia and in the assay on MDA-MB-435 was over 100 µM throughout. The GI50 was 3.34 µM in the assay with HT29 colon; 3.23 µM with UO-31 renal; 7.58 µM in the assay with NCI-H23 lung; over 100 µM in the assay on DU-145 prostate; 5.25 µM with 786-0 renal; 1.9 µM in the assay on NCI-H522 lung. In addition, the GI50 is 0.862 µM in the assay with UACC-257 melanoma and 7.47 µM in the assay with MOLT-4 leukemia.

In the case of `O=C(Cn1c2ccccc2c2ccncc21)N/N=C\c1ccc2ccccc2c1`, the GI50 was 15.4 µM with OVCAR-4 ovarian; 21.7 µM in the assay on HT29 colon; 13.3 µM with UO-31 renal; 17.6 µM in the assay with NCI-H23 lung; 23.9 µM with DU-145 prostate; 13.8 µM in the assay with 786-0 renal. For the same compound, the GI50 in the assay with NCI-H522 lung was 19.6 µM; in the assay with UACC-257 melanoma, 42.1 µM; in the assay with MOLT-4 leukemia, 16.7 µM; in the assay with MDA-MB-435, 17.1 µM. In addition, the TGI in the assay on OVCAR-4 ovarian was 80.8 µM; in the assay on HT29 colon, 50.3 µM; in the assay on UO-31 renal, 45.6 µM; in the assay on NCI-H23 lung it was 52.6 µM; with DU-145 prostate, over 100 µM; in the assay with 786-0 renal it was 30 µM. Moreover, the TGI is 51.5 µM in the assay on NCI-H522 lung, over 100 µM with UACC-257 melanoma, over 100 µM in the assay with MOLT-4 leukemia and 63.3 µM in the assay on MDA-MB-435.

Regarding `Cc1ccccc1NC(=O)c1cc2ccccc2cc1O`, the GI50 in the assay on OVCAR-4 ovarian was 3.44 µM; with HT29 colon, 7.54 µM; with UO-31 renal, 3.54 µM; in the assay with NCI-H23 lung, 2.36 µM; in the assay with DU-145 prostate, 4.03 µM; with 786-0 renal, 3.41 µM. In addition, the GI50 with NCI-H522 lung is 2.62 µM; with UACC-257 melanoma, 3.52 µM; in the assay on MOLT-4 leukemia it was 3.98 µM; with MDA-MB-435, 3.04 µM. Also, the TGI with OVCAR-4 ovarian was over 100 µM; in the assay on HT29 colon, over 100 µM; in the assay on UO-31 renal it was over 100 µM; in the assay with NCI-H23 lung, 6.6 µM; in the assay on DU-145 prostate it was over 100 µM; in the assay on 786-0 renal, over 100 µM. Also, the TGI in the assay on NCI-H522 lung was 9.39 µM; with UACC-257 melanoma, 16.2 µM; in the assay with MOLT-4 leukemia, over 100 µM; in the assay with MDA-MB-435 it was over 100 µM.

For the compound `CCN(CC)CCC(=O)O[C@H]1CC[C@H](CC(C)[C@H]2CC(=O)C(C)C=C(C)[C@H](OC(=O)CCN(CC)CC)C(OC)C(=O)[C@@H](C)CC(C)/C=C/C=C/C=C(C)C(OC)CC3CC[C@H](C)[C@](O)(O3)C(=O)C(=O)N3CCCCC3C(=O)O2)CC1OC` (stereo partly drawn), the GI50 with OVCAR-4 ovarian is 0.00163 µM; with HT29 colon it was 1.07 µM; in the assay on UO-31 renal, 0.00067 µM and 0.00513 µM; with NCI-H23 lung it was 1.28 µM; in the assay with DU-145 prostate it was 1.17 µM; in the assay with NCI-H522 lung it was 0.017 µM. Besides, the GI50 in the assay with MOLT-4 leukemia was 0.0255 µM; with MDA-MB-435 it was 1.14 µM. Besides, the TGI with OVCAR-4 ovarian is > 10 µM and 2.46 µM; with HT29 colon it was 2.57 µM and 2.44 µM; in the assay with UO-31 renal it was 3.08 µM and 1.51 µM; in the assay on NCI-H23 lung, > 10 µM and 3.53 µM; in the assay with DU-145 prostate it was > 10 µM and 8.38 µM; with 786-0 renal it was 2.47 µM and 1.72 µM. Also, the TGI in the assay on NCI-H522 lung is 1.98 µM and 1.89 µM; with UACC-257 melanoma, 2.54 µM and 2.72 µM; with MOLT-4 leukemia, 5.39 µM and 1.32 µM; with MDA-MB-435 it was 2.35 µM and 2.04 µM.

Take `O=C1C=C(OCCCl)C(=O)c2c(O)ccc(O)c21`: the TGI was 3.01 µM and 3.1 µM in the assay on OVCAR-4 ovarian; 1.03 µM and 2.89 µM in the assay with HT29 colon; 2.76 µM and 4.5 µM in the assay on UO-31 renal; 0.503 µM and 3.22 µM in the assay with NCI-H23 lung; 0.746 µM and 2.29 µM with DU-145 prostate; 3.22 µM and 6.75 µM with 786-0 renal. The TGI is 4.44 µM and 3.14 µM in the assay on NCI-H522 lung; 0.358 µM and 2.44 µM in the assay with UACC-257 melanoma; 6.5 µM and 1.58 µM in the assay with MOLT-4 leukemia; 0.389 µM and 0.294 µM in the assay with MDA-MB-435. Moreover, the GI50 in the assay with HT29 colon is 1.12 µM; in the assay with UO-31 renal it was 1.95 µM; in the assay with NCI-H23 lung, 1.5 µM; in the assay on DU-145 prostate, 1.01 µM; in the assay on 786-0 renal it was 2.52 µM; in the assay on NCI-H522 lung, 1.57 µM. In addition, the GI50 was 0.762 µM with UACC-257 melanoma, 0.368 µM with MOLT-4 leukemia and 0.157 µM in the assay on MDA-MB-435.

Take `COc1cc(-c2oc3c(OC)c(O)cc(O)c3c(=O)c2OC)ccc1O`: the TGI was 87.7 µM in the assay on OVCAR-4 ovarian; over 100 µM with HT29 colon; 14.8 µM in the assay on UO-31 renal; over 100 µM in the assay with NCI-H23 lung; over 81.5 µM with DU-145 prostate; over 100 µM with 786-0 renal. The TGI in the assay on NCI-H522 lung was over 37.2 µM; in the assay on UACC-257 melanoma it was over 94.2 µM; in the assay with MOLT-4 leukemia, 29.4 µM; in the assay with MDA-MB-435 it was 52.3 µM.

Turning to `Cc1ccc([N+](=O)[O-])c2c(NCCC[N+](C)(C)[O-])ccnc12`, the TGI with OVCAR-4 ovarian is 59.2 µM; in the assay with HT29 colon it was over 100 µM; in the assay on UO-31 renal, over 100 µM; in the assay with NCI-H23 lung, over 100 µM; in the assay on DU-145 prostate it was over 100 µM; in the assay with 786-0 renal, over 100 µM. In addition, the TGI with NCI-H522 lung is 32.6 µM; in the assay with UACC-257 melanoma, 69.8 µM; with MOLT-4 leukemia it was over 100 µM; with MDA-MB-435, over 100 µM.

As for `CCCCN(CCCC)CCC(O)c1cc2ccc(C(F)(F)F)cc2c2cc(C(F)(F)F)ccc12` (stereo not drawn), the GI50 is 3.5 µM in the assay with OVCAR-4 ovarian; 2 µM with HT29 colon; 1.89 µM in the assay on UO-31 renal; 2.08 µM in the assay on NCI-H23 lung; 6.15 µM in the assay with DU-145 prostate; 1.55 µM with 786-0 renal. Also, the GI50 with NCI-H522 lung is 1.79 µM; in the assay on UACC-257 melanoma, 2.15 µM; in the assay with MOLT-4 leukemia it was 2.67 µM; with MDA-MB-435, 2.13 µM. Besides, the TGI in the assay with OVCAR-4 ovarian turned out to be 13.1 µM; with HT29 colon, 4.41 µM; with UO-31 renal, 12.4 µM; with NCI-H23 lung, 6.81 µM; with DU-145 prostate, 18.7 µM; in the assay on 786-0 renal it was 3.2 µM. Besides, the TGI in the assay with NCI-H522 lung amounted to 3.54 µM; in the assay with UACC-257 melanoma, 5.96 µM; with MOLT-4 leukemia it was 6.66 µM; in the assay with MDA-MB-435, 4.59 µM.

(Values after PubChem BioAssay (NCI).)
